Patent US20020188132A1, “Heteroaryl acetylenic sulfonamide and phosphinic acid amide hydroxamic acid TACE inhibitors” (priority 1999, published 2002)

What was measured:
Assay type in all cases: biochemical
[1] = molecular target: T1, MMP-1 (Homo sapiens, UniProt P03956); test: MMP-1 inhibition (thiopeptide or fluorescent peptide substrate)
T1 sequence (P03956 100-469): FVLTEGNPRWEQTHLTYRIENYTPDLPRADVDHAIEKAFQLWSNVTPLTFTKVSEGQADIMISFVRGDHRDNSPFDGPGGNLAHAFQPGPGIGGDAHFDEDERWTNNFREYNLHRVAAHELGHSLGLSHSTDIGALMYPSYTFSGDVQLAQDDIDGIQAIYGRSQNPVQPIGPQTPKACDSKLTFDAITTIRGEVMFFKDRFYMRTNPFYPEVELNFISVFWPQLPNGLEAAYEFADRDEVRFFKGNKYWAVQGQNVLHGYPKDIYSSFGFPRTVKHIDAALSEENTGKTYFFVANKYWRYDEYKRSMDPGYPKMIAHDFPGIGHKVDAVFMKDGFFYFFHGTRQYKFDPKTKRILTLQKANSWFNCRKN
Description: (§1) These standard pharmacological test procedures are based on the cleavage of a thiopeptide substrates such as Ac-Pro-Leu-Gly(2-mercapto-4-methyl-pentanoyl)-Leu-Gly-OEt by the matrix metalloproteinases MMP-1, MMP-13 (collagenases) or MMP-9 (gelatinase), which results in the release of a substrate product that reacts calorimetrically with DTNB (5,5′-dithiobis(2-nitro-benzoic acid)). The enzyme activity is measured by the rate of the color increase. The thiopeptide substrate is made up fresh as a 20 mM stock in 100% DMSO and the DTNB is dissolved in 100% DMSO as a 100 mM stock and stored in the dark at room temperature. […] The buffer, enzyme, vehicle or inhibitor, and DTNB/substrate are added in this order to a 96 well plate (total reaction volume of 200 μl) and the increase in color is monitored spectrophotometrically for 5 minutes at 405 nm on a plate reader and the increase in color over time is plotted as a linear line.
(§2) Alternatively, a fluorescent peptide substrate is used. […] Upon cleavage of the substrate by an MMP, the fluorescence that is generated is quantitated on the fluorescence plate reader. […] The reaction is read (excitation 340 nm, emission 444 nm) for 10 min. and the increase in fluorescence over time is plotted as a linear line.
(§3) For either the thiopeptide or fluorescent peptide test procedures, the slope of the line is calculated and represents the reaction rate. […]

[2] = molecular target: MMP-9 (Homo sapiens, UniProt P14780); test: MMP-9 inhibition (thiopeptide or fluorescent peptide substrate)
Description: as §1, §2, §3

[3] = molecular target: MMP-13 (Homo sapiens, UniProt P45452); test: MMP-13 inhibition (thiopeptide or fluorescent peptide substrate)
Description: as §1, §2, §3

[4] = molecular target: TACE (Homo sapiens, UniProt P78536); test: TACE inhibition (fluorescent peptidyl substrate)
Description: Using 96-well black microtiter plates, each well receives a solution composed of 10 μL TACE (final concentration 1 μg/mL), 70 μL Tris buffer, pH 7.4 containing 10% glycerol (final concentration 10 mM), and 10 μL of test compound solution in DMSO (final concentration 1 μM, DMSO concentration <1%) and incubated for 10 minutes at room temperature. The reaction is initiated by addition of a fluorescent peptidyl substrate (final concentration 100 μM) to each well and then shaking on a shaker for 5 sec.
The reaction is read (excitation 340 nm, emission 420 nm) for 10 min. and the increase in fluorescence over time is plotted as a linear line. The slope of the line is calculated and represents the reaction rate.
The linearity of the reaction rate is confirmed (r^2>0.85). The mean (x±sem) of the control rate is calculated and compared for statistical significance (p<0.05) with drug-treated rates using Dunnett's multiple comparison test. Dose-response relationships can be generate using multiple doses of drug and IC50 values with 95% CI are estimated using linear regression.

Sequence of TACE (P78536 215-824): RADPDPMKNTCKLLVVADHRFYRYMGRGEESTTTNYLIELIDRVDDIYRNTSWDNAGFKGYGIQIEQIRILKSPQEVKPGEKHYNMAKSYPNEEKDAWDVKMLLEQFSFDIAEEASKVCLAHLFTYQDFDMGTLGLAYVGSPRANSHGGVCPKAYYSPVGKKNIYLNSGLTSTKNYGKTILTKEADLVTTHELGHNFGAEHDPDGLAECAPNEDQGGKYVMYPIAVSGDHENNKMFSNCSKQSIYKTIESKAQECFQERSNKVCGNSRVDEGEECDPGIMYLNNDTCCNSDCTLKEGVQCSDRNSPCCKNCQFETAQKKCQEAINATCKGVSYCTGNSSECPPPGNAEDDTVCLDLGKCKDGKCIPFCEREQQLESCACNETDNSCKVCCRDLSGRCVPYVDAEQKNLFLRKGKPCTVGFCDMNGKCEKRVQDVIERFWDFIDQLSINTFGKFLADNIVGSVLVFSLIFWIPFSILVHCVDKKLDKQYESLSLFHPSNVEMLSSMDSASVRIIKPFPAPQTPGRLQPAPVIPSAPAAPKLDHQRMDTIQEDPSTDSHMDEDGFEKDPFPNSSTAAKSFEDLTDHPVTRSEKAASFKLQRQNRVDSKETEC
Sequence of MMP-9 (P14780 94-707): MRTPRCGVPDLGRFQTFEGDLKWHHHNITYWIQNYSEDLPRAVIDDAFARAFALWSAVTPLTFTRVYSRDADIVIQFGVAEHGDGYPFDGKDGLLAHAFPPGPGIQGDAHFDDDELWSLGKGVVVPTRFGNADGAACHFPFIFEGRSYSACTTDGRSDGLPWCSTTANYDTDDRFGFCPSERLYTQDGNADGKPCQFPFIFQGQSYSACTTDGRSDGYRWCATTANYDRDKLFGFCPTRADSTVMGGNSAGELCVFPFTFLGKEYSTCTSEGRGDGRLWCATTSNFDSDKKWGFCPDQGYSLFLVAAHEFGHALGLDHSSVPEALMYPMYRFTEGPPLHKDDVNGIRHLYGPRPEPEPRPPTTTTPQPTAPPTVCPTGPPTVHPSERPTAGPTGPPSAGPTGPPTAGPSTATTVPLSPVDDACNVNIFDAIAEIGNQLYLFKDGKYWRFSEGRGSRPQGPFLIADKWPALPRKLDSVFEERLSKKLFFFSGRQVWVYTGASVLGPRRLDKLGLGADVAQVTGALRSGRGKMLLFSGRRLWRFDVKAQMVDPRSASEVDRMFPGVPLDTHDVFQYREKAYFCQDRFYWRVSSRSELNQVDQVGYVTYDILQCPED

`CC#CCOc1ccc(S(=O)(=O)N(C)c2c(C(=O)NO)cc(OC)nc2OC)cc1` [Example 33, 3-[Methyl-(4-but-2-ynyloxy-benzenesulfonyl)-animo]-N-hydroxy-2,6-dimethoxy-isonicotinamide] gave an IC50 [1] of about 10 µM, an IC50 [2] of 607 nM and an IC50 [3] of 478 nM. The IC50 [4] was 11 nM.
Work on `CC#CCOc1ccc(S(=O)(=O)Nc2c(C(=O)NO)cc(OC)nc2OC)cc1` [Example 35, 3-(4-But-2-ynyloxy-benzenesulfonylamino)-N-hydroxy-2,6-dimethoxy-isonicotinamide] yielded an IC50 [4] of 44 nM.
